Measured values reported in paper PMC11079024, “Identification of a family of species-selective complex I inhibitors as potential anthelmintics” (Nature Communications, 2024).
Like-named read-outs stand apart in the source and are kept apart here.

Legend:
C. briggsae complex I = C. briggsae complex I (Caenorhabditis briggsae, UniProt A8X476+A8XFG2+Q8HEC4); test: In vitro complex I activity assay, C. briggsae mitochondria; type: biochemical
Procedure: (§1) Mitochondria were isolated from the following free-living nematode strains: C. elegans—N2, CB3474, ECA882, ECA917, ECA1075, ECA1080; C. briggsae—AF16; P. pacificus—PS312; and P. hermaphrodita—B178. With the exception of the P. hermaphrodita strain B178, adult worms of each strain were grown in bulk through liquid culture to obtain mitochondria in sufficient quantities. Due to poor growth in liquid media, mixed stage populations of P. hermaphrodita were washed off and collected from NGM plates seeded with OP50. The isolation of mitochondria from all free-living nematode strains followed the protocol previously outlined in Burns et al.[24]. In brief, a 1 L saturated culture of E. coli HB101 was concentrated 20-fold in 50 mL complete S-medium. ~500,000 L1 worms synchronized from an embryo preparation performed the day prior were added to the S-media/HB101 suspension and grown to adulthood over the course of 3.5 days at 20 °C with shaking at 165 rpm. Following growth, worms were collected in 10 ×15 mL conical tubes and washed 7 times in M9 buffer. Worm suspensions were then combined into a single 15 mL conical tube and diluted to a final volume of 15 mL with M9 buffer. 1 mL aliquots of worm suspension were then distributed to 15 × 1.5 mL screw-cap microcentrifuge tubes and were pelleted at 500 g for 1 min. Excess M9 was aspirated without disturbing the worm pellet. 600 μL ice-cold isolate buffer A (250 mM sucrose, 10 mM Tris (pH 7.5), 1 mM EDTA, 1 mM PMSF (freshly prepared)) and 300 μL cold glass beads were then added to each tube. Tubes were incubated on ice for 10 min, and the worms were then lysed by bead beating (6 x 30 s, with 1 min cooling intervals). Tubes containing worm lysate were centrifuged at 1,000 g for 10 min at 4 °C and the supernatant was transferred to 15 new microcentrifuge tubes on ice. The tubes were centrifuged a second time at 1,000 g for 10 min at 4 °C and the supernatant was once again transferred to 15 new microcentrifuge tubes on ice. These tubes were then centrifuged at 16,000 g for 10 min at 4 °C. The resulting mitochondrial pellet was washed twice by re-suspension in 300 μL of ice-cold isolate buffer B (250 mM sucrose, 10 mM Tris (pH 7.5), 1 mM EDTA). Following the final wash, isolation buffer was aspirated from each tube and the pellets were flash-frozen in ethanol/dry ice and stored at −80 °C until needed.
(§2) The enzymatic activities of individual ETC complexes (I-IV) were assessed spectrophotometrically in isolated mitochondria using a Varioskan LUX Multimode plate reader (ThermoFisher Scientific). Mitochondrial pellets previously isolated were thawed on ice and resuspended in ice-cold isolation buffer (250 mM sucrose, 10 mM Tris (pH 7.5), 1 mM EDTA). The BCA assay (Walker, 1994) was used to quantify the protein concentration of mitochondria suspensions; solutions were diluted to a concentration of 0.2 mg/mL for use in all assays. For the complex I assay, mitochondria pellets were freeze-thawed on ice three times to increase enzyme accessibility. […] 20 μL mitochondria suspension was then added/mixed with a pipette to initiate the reaction. Immediately following the addition of mitochondria, absorbance was measured (complex I and II: 600 nm; complex III and IV: 550 nm) in 30 s intervals over 15 min. Enzymatic activity was determined in each reaction by plotting absorbance versus time and calculating the slope of the curve during the initial linear phase of the reaction. […] Percent activity of each complex was calculated by dividing the enzyme-specific activity of each well by the enzyme-specific activity of the corresponding solvent controls.
Chemical solutions were prepared in complex I assay buffer composed of 25 mM KPi buffer (pH 7.5), 3 mg/mL bovine serum albumin (BSA), 80 μM NADH, 60 μM decylubiquinone, 160 μM DCIP, 2 μM antimycin A and 2 mM KCN.
For preliminary screens of hit compounds, compounds were screened at 100 μM; data are the average of at least three biological replicates.

P. pacificus complex I = P. pacificus complex I (Pristionchus pacificus, UniProt A0A454XZ18+A0A8R1Z3U8+A4UAP3); test: In vitro complex I activity assay, P. pacificus mitochondria; type: biochemical
Procedure: as §1, §2
Chemical solutions were prepared in complex I assay buffer composed of 25 mM KPi buffer (pH 7.5), 3 mg/mL bovine serum albumin (BSA), 80 μM NADH, 60 μM decylubiquinone, 160 μM DCIP, 2 μM antimycin A and 2 mM KCN. […]

[1] = C. briggsae mitochondria, Mean, read-out: in vitro complex I activity relative to solvent control
[2] = C. briggsae mitochondria, single replicate, read-out: in vitro complex I activity relative to solvent control
[3] = P. pacificus mitochondria, Mean, read-out: in vitro complex I activity relative to solvent control
[4] = P. pacificus mitochondria, single replicate, read-out: in vitro complex I activity relative to solvent control

Chain of C. briggsae complex I (A8X476 31-482): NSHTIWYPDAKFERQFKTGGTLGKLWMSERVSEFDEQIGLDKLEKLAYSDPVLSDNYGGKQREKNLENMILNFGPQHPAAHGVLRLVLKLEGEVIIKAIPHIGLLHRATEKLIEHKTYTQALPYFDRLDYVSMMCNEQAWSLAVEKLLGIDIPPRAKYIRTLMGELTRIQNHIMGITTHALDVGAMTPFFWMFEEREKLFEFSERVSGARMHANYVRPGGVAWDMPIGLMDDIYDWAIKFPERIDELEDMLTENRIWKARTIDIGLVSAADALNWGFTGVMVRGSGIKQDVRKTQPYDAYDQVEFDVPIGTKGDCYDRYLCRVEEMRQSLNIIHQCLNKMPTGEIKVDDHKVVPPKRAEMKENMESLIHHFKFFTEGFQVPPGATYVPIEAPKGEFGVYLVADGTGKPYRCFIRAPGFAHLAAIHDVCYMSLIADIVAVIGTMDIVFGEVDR
Chain of C. briggsae complex I (A8XFG2 17-199): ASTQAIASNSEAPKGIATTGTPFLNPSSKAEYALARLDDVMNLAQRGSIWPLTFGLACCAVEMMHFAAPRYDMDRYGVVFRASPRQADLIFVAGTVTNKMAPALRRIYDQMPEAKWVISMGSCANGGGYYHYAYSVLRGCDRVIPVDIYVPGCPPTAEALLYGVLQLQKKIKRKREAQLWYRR
Chain of C. briggsae complex I (Q8HEC4 whole entry): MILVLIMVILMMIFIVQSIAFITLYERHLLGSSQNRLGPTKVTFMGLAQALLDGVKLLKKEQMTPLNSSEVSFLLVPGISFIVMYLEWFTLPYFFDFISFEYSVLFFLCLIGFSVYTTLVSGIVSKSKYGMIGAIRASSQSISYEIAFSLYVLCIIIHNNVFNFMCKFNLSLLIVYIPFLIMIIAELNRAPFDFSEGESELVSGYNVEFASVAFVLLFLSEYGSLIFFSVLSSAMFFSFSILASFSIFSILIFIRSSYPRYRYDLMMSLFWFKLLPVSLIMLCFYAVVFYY

Cc1ccccc1OCCCCn1cnc2ccccc21 [Compound 7732524]
remaining activity at 0.0001 µM (C. briggsae complex I; [1]): 92.8% | remaining activity at 0.0001 µM (C. briggsae complex I; [2]): 92.9% | remaining activity at 0.0005 µM (C. briggsae complex I; [1]): 91% | remaining activity at 0.0005 µM (C. briggsae complex I; [2]): 90.7% | remaining activity at 0.001 µM (C. briggsae complex I; [1]): 90.6% | remaining activity at 0.001 µM (C. briggsae complex I; [2]): 94.1% | remaining activity at 0.0025 µM (C. briggsae complex I; [1]): 91.8% | remaining activity at 0.0025 µM (C. briggsae complex I; [2]): 95.4% | remaining activity at 0.005 µM (C. briggsae complex I; [1]): 99.8% | remaining activity at 0.005 µM (C. briggsae complex I; [2]): 102% | remaining activity at 0.013 µM (C. briggsae complex I; [1]): 86.4% | remaining activity at 0.013 µM (C. briggsae complex I; [2]): 91.2% | remaining activity at 0.025 µM (C. briggsae complex I; [1]): 74.3% | remaining activity at 0.025 µM (C. briggsae complex I; [2]): 77.1% | remaining activity at 0.063 µM (C. briggsae complex I; [1]): 43.5% | remaining activity at 0.063 µM (C. briggsae complex I; [2]): 44.1% | remaining activity at 0.125 µM (C. briggsae complex I; C. briggsae mitochondria, 0.125 µM, Mean, read-out: in vitro complex I activity relative to solvent control): 26.1% | remaining activity at 0.313 µM (C. briggsae complex I; C. briggsae mitochondria, 0.313 µM, Mean, read-out: in vitro complex I activity relative to solvent control): 7.94% | remaining activity at 0.625 µM (C. briggsae complex I; C. briggsae mitochondria, 0.625 µM, Mean, read-out: in vitro complex I activity relative to solvent control): 0.818% | remaining activity at 1.5 µM (C. briggsae complex I; C. briggsae mitochondria, 1.5 µM, Mean, read-out: in vitro complex I activity relative to solvent control): 1.29% | remaining activity at 3 µM (C. briggsae complex I; C. briggsae mitochondria, 3 µM, Mean, read-out: in vitro complex I activity relative to solvent control): 1.71% | remaining activity at 15 µM (C. briggsae complex I; C. briggsae mitochondria, 15 µM, Mean, read-out: in vitro complex I activity relative to solvent control): 1.4% | remaining activity at 37.5 µM (C. briggsae complex I; C. briggsae mitochondria, 37.5 µM, Mean, read-out: in vitro complex I activity relative to solvent control): 1.05% | remaining activity at 75 µM (C. briggsae complex I; C. briggsae mitochondria, 75 µM, Mean, read-out: in vitro complex I activity relative to solvent control): 0.358% | IC50 (C. briggsae complex I; purified mitochondria): 60.3 nM | remaining activity at 0.0001 µM (P. pacificus complex I; [3]): 87.6% | remaining activity at 0.0001 µM (P. pacificus complex I; [4]): 93.9% | remaining activity at 0.0005 µM (P. pacificus complex I; P. pacificus mitochondria, 0.0005 µM, Mean, read-out: in vitro complex I activity relative to solvent control): 88.6% | remaining activity at 0.001 µM (P. pacificus complex I; P. pacificus mitochondria, 0.001 µM, Mean, read-out: in vitro complex I activity relative to solvent control): 75.8% | remaining activity at 0.0025 µM (P. pacificus complex I; P. pacificus mitochondria, 0.0025 µM, Mean, read-out: in vitro complex I activity relative to solvent control): 97.4% | remaining activity at 0.005 µM (P. pacificus complex I; P. pacificus mitochondria, 0.005 µM, Mean, read-out: in vitro complex I activity relative to solvent control): 100% | remaining activity at 0.013 µM (P. pacificus complex I; P. pacificus mitochondria, 0.013 µM, Mean, read-out: in vitro complex I activity relative to solvent control): 85.8% | remaining activity at 0.025 µM (P. pacificus complex I; P. pacificus mitochondria, 0.025 µM, Mean, read-out: in vitro complex I activity relative to solvent control): 73.7% | remaining activity at 0.063 µM (P. pacificus complex I; P. pacificus mitochondria, 0.063 µM, Mean, read-out: in vitro complex I activity relative to solvent control): 46.6% | remaining activity at 0.125 µM (P. pacificus complex I; P. pacificus mitochondria, 0.125 µM, Mean, read-out: in vitro complex I activity relative to solvent control): 24.7% | remaining activity at 0.313 µM (P. pacificus complex I; P. pacificus mitochondria, 0.313 µM, Mean, read-out: in vitro complex I activity relative to solvent control): 8.23% | remaining activity at 0.625 µM (P. pacificus complex I; P. pacificus mitochondria, 0.625 µM, Mean, read-out: in vitro complex I activity relative to solvent control): 11.5% | remaining activity at 1.5 µM (P. pacificus complex I; P. pacificus mitochondria, 1.5 µM, Mean, read-out: in vitro complex I activity relative to solvent control): 9.66% | remaining activity at 3 µM (P. pacificus complex I; P. pacificus mitochondria, 3 µM, Mean, read-out: in vitro complex I activity relative to solvent control): 9.9% | remaining activity at 15 µM (P. pacificus complex I; [3]): 16.2% | remaining activity at 15 µM (P. pacificus complex I; [4]): 15.9% | remaining activity at 37.5 µM (P. pacificus complex I; P. pacificus mitochondria, 37.5 µM, Mean, read-out: in vitro complex I activity relative to solvent control): 16.1% | remaining activity at 75 µM (P. pacificus complex I; P. pacificus mitochondria, 75 µM, Mean, read-out: in vitro complex I activity relative to solvent control): 7.58% | IC50 (P. pacificus complex I; purified mitochondria): 56.2 nM
